Source: patent US12466812B2, “Pyridinyltriazine derivative having protein kinase inhibitory activity, and pharmaceutical composition for preventing, ameliorating, or treating cancer comprising same” (KOREA INSTITUTE OF SCIENCE AND TECHNOLOGY, priority 2019, dated 2025)
One block for each compound: values may come before it.

How the values were obtained:
[1] = test system: AN3-CA, a uterine cancer cell line; experiment: Inhibitory activity against cancer cell proliferation (Experimental Example 2); assay type: cell-based; conditions: Homo sapiens, Table 2
FGFR2 mutant (N549H) = FGFR2 mutant (N549H) (Homo sapiens, UniProt P21802, N549H); experiment: Pan-FGFR mutant enzymatic activity; assay type: biochemical; conditions: mutant enzyme
Sequence of FGFR2 mutant (N549H) (P21802 22-821 N549H): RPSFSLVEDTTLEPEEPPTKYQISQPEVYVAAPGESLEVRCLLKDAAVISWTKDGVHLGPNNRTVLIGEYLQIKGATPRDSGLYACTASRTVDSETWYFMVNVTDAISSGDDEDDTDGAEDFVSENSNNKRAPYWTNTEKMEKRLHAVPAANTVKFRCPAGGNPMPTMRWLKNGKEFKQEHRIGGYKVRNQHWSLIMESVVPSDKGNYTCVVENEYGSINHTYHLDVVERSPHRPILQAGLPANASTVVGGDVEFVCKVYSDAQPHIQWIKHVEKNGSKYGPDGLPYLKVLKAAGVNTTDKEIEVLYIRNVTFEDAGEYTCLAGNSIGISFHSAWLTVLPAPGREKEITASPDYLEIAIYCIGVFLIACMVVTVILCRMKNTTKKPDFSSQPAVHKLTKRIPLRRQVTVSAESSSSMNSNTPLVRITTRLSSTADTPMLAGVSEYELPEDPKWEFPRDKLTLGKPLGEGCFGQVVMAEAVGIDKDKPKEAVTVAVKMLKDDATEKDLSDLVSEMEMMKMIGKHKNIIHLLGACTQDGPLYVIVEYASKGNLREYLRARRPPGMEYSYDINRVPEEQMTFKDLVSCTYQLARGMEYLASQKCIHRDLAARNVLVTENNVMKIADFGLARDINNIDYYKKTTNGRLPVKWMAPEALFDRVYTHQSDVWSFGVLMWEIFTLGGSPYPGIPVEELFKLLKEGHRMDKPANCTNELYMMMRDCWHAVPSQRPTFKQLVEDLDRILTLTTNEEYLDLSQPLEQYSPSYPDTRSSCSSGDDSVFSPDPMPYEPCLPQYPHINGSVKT
Procedure: (§1) The inhibitory activity against pan-FGFR mutants of the compounds synthesized in Examples 1, 8, 13, 22, and 24 was measured, the inhibitory activity on each of enzymatic activity and cellular activity was evaluated, and the results are shown in Tables 3 and 4 below.

FGFR2 mutant (V564F) = FGFR2 mutant (V564F) (Homo sapiens, UniProt P21802, V564F); experiment: Pan-FGFR mutant enzymatic activity; assay type: biochemical; conditions: mutant enzyme
Sequence of FGFR2 mutant (V564F) (P21802 22-821 V564F): as the sequence (P21802 22-821 N549H) above, with H528N, V543F counted along it
Procedure: as §1

FGFR3 mutant (K650E) = FGFR3 mutant (K650E) (Homo sapiens, UniProt P22607, K650E); experiment: Pan-FGFR mutant enzymatic activity; assay type: biochemical; conditions: mutant enzyme
Sequence of FGFR3 mutant (K650E) (P22607 23-806 K650E): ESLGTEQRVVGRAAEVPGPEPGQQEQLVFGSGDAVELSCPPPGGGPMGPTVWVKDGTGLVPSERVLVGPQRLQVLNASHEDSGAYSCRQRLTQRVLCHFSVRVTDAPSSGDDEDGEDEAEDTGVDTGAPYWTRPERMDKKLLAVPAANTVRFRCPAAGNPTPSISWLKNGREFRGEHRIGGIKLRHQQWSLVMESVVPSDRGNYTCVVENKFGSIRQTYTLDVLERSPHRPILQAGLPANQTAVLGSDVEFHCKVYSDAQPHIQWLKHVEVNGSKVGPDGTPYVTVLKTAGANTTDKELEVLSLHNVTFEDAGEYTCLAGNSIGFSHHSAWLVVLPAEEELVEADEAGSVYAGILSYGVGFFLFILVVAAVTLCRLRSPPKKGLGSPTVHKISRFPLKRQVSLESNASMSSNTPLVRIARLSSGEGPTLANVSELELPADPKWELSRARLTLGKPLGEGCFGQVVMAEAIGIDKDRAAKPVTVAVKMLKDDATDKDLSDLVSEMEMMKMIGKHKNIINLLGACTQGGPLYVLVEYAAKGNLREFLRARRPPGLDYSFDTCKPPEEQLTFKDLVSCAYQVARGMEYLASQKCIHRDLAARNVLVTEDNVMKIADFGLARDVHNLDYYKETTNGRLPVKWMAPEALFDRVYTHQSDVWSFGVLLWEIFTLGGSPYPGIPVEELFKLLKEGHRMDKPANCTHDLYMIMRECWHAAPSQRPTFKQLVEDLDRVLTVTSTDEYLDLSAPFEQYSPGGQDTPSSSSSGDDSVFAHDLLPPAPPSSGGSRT
Procedure: as §1

FGFR3 mutant (K650M) = FGFR3 mutant (K650M) (Homo sapiens, UniProt P22607, K650M); experiment: Pan-FGFR mutant enzymatic activity; assay type: biochemical; conditions: mutant enzyme
Sequence of FGFR3 mutant (K650M) (P22607 23-806 K650M): as the sequence (P22607 23-806 K650E) above, with E628M counted along it
Procedure: as §1

FGFR3 mutant (V555M) = FGFR3 mutant (V555M) (Homo sapiens, UniProt P22607, V555M); experiment: Pan-FGFR mutant enzymatic activity; assay type: biochemical; conditions: mutant enzyme
Sequence of FGFR3 mutant (V555M) (P22607 23-806 V555M): as the sequence (P22607 23-806 K650E) above, with V533M, E628K counted along it
Procedure: as §1

AN3-CA = experiment: Pan-FGFR mutant cellular activity; assay type: cell-based; conditions: Homo sapiens, mutant cell, Table 4, read-out: GI50, AN3-CA (breast cancer cell line)
Procedure: as §1

[2] = test system: J82 (bladder cancer cell line); experiment: Pan-FGFR mutant cellular activity; assay type: cell-based; conditions: Table 4
Procedure: as §1

[3] = test system: KMS-11 (myeloma cell line); experiment: Pan-FGFR mutant cellular activity; assay type: cell-based; conditions: Homo sapiens, Table 4
Procedure: as §1

[4] = test system: UMUC3 (bladder cancer cell line); experiment: Pan-FGFR mutant cellular activity; assay type: cell-based; conditions: Homo sapiens, Table 4
Procedure: as §1

- GI50 [1]: 1000 to 10000 nM
SMILES: COc1ccccc1Nc1ncnc(-c2cccnc2Nc2c(Cl)c(OC)cc(OC)c2Cl)n1 [Example 5]

- GI50 [1]: < 1000 nM
SMILES: COc1cccc(Nc2ncnc(-c3cccnc3Nc3c(Cl)c(OC)cc(OC)c3Cl)n2)c1 [Example 6]

- GI50 [1]: < 1000 nM
SMILES: COc1cc(OC)c(Cl)c(Nc2ncccc2-c2ncnc(Nc3ccc(N4CCOCC4)nc3)n2)c1Cl [Example 10]

- GI50 [1]: < 1000 nM
SMILES: COc1cc(OC)c(Cl)c(Nc2ncccc2-c2ncnc(Nc3ccc(N4CCN(C(C)=O)CC4)cc3)n2)c1Cl [Example 11, 1-(4-(4-((4-(2-((2,6-dichloro-3,5-dimethoxyphenyl)amino)pyridin-3-yl)-1,3,5-triazin-2-yl)amino)phenyl)piperazin-1-yl)ethan-1-one]

- GI50 [1]: < 1000 nM
SMILES: COc1cc(OC)c(Cl)c(Nc2ncccc2-c2ncnc(Nc3ccc(N4CCC(O)CC4)cc3)n2)c1Cl [Example 12]

- GI50 [1]: < 1000 nM
- IC50 (FGFR2 mutant (N549H)): < 100 nM
- IC50 (FGFR2 mutant (V564F)): 100 to 1000 nM
- IC50 (FGFR3 mutant (K650E)): < 100 nM
- IC50 (FGFR3 mutant (K650M)): < 100 nM
- IC50 (FGFR3 mutant (V555M)): 100 to 1000 nM
- GI50 [2]: < 1000 nM
- GI50 [3]: < 1000 nM
- GI50 [4]: 1000 to 10000 nM
SMILES: COc1cc(OC)c(Cl)c(Nc2ncccc2-c2ncnc(Nc3ccc(N4C[C@@H](C)N[C@@H](C)C4)cc3)n2)c1Cl [Example 13]
- GI50 (AN3-CA): < 1000 nM

- GI50 [1]: < 1000 nM
SMILES: COc1cc(N2CCN(C)CC2)ccc1Nc1ncnc(-c2cccnc2Nc2c(Cl)c(OC)cc(OC)c2Cl)n1 [Example 14]

- GI50 [1]: > 10000 nM
SMILES: COc1cc(OC)c(Cl)c(Nc2ncccc2-c2ncnc(Nc3ccc(N4CCOCC4)nc3OC)n2)c1Cl [Example 16]

- GI50 [1]: < 1000 nM
SMILES: COc1cc(OC)c(Cl)c(Nc2ncccc2-c2ncnc(Nc3cnn(C)c3)n2)c1Cl [Example 18]

- GI50 [1]: > 10000 nM
SMILES: C=CCn1cc(Nc2ncnc(-c3cccnc3Nc3c(Cl)c(OC)cc(OC)c3Cl)n2)cn1 [Example 19, N-(1-allyl-1H-pyrazol-4-yl)-4-(2-((2,6-dichloro-3,5-dimethoxyphenyl)amino)pyridin-3-yl)-1,3,5-triazin-2-amine]

- GI50 [1]: < 1000 nM
SMILES: COc1cc(OC)c(Cl)c(Nc2ncccc2-c2ncnc(Nc3cnn(CCCN(C)C)c3)n2)c1Cl [Example 20, 4-(2-((2,6-dichloro-3,5-dimethoxyphenyl)amino)pyridin-3-yl)-N-(1-(3-(dimethylamino)propyl)-1H-pyrazol-4-yl)-1,3,5-triazin-2-amine]

- GI50 [1]: < 1000 nM
SMILES: COc1cc(OC)c(Cl)c(Nc2ncccc2-c2ncnc(Nc3cnn(C4CCOCC4)c3)n2)c1Cl [Example 21, 4-(2-((2,6-dichloro-3,5-dimethoxyphenyl)amino)pyridin-3-yl)-N-(1-(tetrahydro-2H-pyran-4-yl)-1H-pyrazol-4-yl)-1,3,5-triazin-2-amine]

The next lines start with the compound.

SMILES: COc1cc(OC)c(Cl)c(Nc2ncccc2-c2ncnc(N)n2)c1Cl [Example 2, 4-(2-((2,6-dichloro-3,5-dimethoxyphenyl)amino)pyridin-3-yl)-1,3,5-triazin-2-amine]
- GI50 [1]: < 1000 nM

SMILES: COc1cc(OC)c(Cl)c(Nc2ncccc2-c2ncnc(NCCN(C)C)n2)c1Cl [Example 3, N^1-(4-(2-((2,6-dichloro-3,5-dimethoxyphenyl)amino)pyridin-3-yl)-1,3,5-triazin-2-yl)-N^2,N^2-dimethylethane-1,2-diamine]
- GI50 [1]: 1000 to 10000 nM

SMILES: COc1cc(OC)c(Cl)c(Nc2ncccc2-c2ncnc(Nc3ccccc3)n2)c1Cl [Example 4, 4-(2-((2,6-dichloro-3,5-dimethoxyphenyl)amino)pyridin-3-yl)-N-phenyl-1,3,5-triazin-2-amine]
- GI50 [1]: < 1000 nM

SMILES: COc1cc(OC)c(Cl)c(Nc2ncccc2-c2ncnc(Nc3ccc(N(C)C)cc3)n2)c1Cl [Example 7, N^1-(4-(2-((2,6-dichloro-3,5-dimethoxyphenyl)amino)pyridin-3-yl)-1,3,5-triazin-2-yl)-N^4,N^4-dimethylbenzene-1,4-diamine]
- GI50 [1]: < 1000 nM

SMILES: CCN1CCN(c2cccc(Nc3ncnc(-c4cccnc4Nc4c(Cl)c(OC)cc(OC)c4Cl)n3)c2)CC1 [Example 8]
- GI50 [1]: < 1000 nM
- IC50 (FGFR2 mutant (N549H)): < 100 nM
- IC50 (FGFR2 mutant (V564F)): 100 to 1000 nM
- IC50 (FGFR3 mutant (K650E)): < 100 nM
- IC50 (FGFR3 mutant (K650M)): < 100 nM
- IC50 (FGFR3 mutant (V555M)): 100 to 1000 nM
- GI50 (AN3-CA): < 1000 nM
- GI50 [2]: 1000 to 10000 nM
- GI50 [3]: < 1000 nM
- GI50 [4]: 1000 to 10000 nM

SMILES: COc1cc(OC)c(Cl)c(Nc2ncccc2-c2ncnc(Nc3ccc(N4CCOCC4)cc3)n2)c1Cl [Example 9]
- GI50 [1]: 1000 to 10000 nM

SMILES: COc1cc(N2CCOCC2)ccc1Nc1ncnc(-c2cccnc2Nc2c(Cl)c(OC)cc(OC)c2Cl)n1 [Example 15]
- GI50 [1]: > 10000 nM

SMILES: COc1cc(N2C[C@@H](C)N[C@@H](C)C2)ccc1Nc1ncnc(-c2cccnc2Nc2c(Cl)c(OC)cc(OC)c2Cl)n1 [Example 17]
- GI50 [1]: < 1000 nM

SMILES: COc1cc(OC)c(Cl)c(Nc2ncccc2-c2ncnc(Nc3cnn(C4CCN(C(=O)OC(C)(C)C)CC4)c3)n2)c1Cl [Example 23, Tert-butyl 4-(4-((4-(2-((2,6-dichloro-3,5-dimethoxyphenyl)amino)pyridin-3-yl)-1,3,5-triazin-2-yl)amino)-1H-pyrazol-1-yl) piperidine-1-carboxylate]
- GI50 [1]: < 1000 nM
